Measurements as given in PMC10820527, “Synthesis, Characterization, and Investigation of Anti-Inflammatory and Cytotoxic Activities of Novel Thiourea Derivatives of Naproxen” (Pharmaceutics, 2023).
Where two headings read alike, the source gives them in different places.

Key:
[1] = tested on: MCF-7, MDA-MB-231, HeLa, and HCT-116; settings: cited from earlier work
[2] = molecular target: T1, 5-LOX (Homo sapiens, UniProt P09917); set-up: method as in PMID 37242450; settings: among compounds 1–5, previously published study ref 37; cited from earlier work
T1 construct: purchased Abcam
T1 sequence (P09917 1-674): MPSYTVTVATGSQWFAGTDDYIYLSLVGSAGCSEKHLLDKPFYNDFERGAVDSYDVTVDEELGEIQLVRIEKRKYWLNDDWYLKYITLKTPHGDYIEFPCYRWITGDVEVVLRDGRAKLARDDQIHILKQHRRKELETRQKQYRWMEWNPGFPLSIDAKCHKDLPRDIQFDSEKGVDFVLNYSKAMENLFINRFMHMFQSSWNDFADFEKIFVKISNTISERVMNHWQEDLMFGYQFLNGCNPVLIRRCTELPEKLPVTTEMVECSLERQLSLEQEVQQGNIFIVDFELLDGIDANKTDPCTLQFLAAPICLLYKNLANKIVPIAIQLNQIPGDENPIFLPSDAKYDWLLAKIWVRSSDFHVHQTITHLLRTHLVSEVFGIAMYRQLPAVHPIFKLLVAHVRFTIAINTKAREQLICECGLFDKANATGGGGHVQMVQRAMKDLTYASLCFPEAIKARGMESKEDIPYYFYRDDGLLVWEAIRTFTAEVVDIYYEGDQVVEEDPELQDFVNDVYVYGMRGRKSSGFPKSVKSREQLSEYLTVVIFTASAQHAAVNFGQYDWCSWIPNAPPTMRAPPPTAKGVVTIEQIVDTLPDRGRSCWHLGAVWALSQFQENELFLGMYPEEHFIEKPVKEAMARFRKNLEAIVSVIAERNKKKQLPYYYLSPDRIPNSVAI

[3] = tested on: HCT 116; assay: MTT cytotoxicity assay, HCT 116; format: cell-based, human; settings: for IC50: mean ± SD
Description: (§1) Three cancer cell lines (MDA-MB-231, HCT116 and HeLa; i.e., human breast cancer cells, human colorectal cancer cells, and human cervical cancer cells, respectively), and one non-malignant fibroblast MRC-5 cell line (control) were used in this study. The American Type Cell Collection (ATCC, Manassas, VA, USA) provided all examined cell lines. The cells were grown in a complete medium made up of high-glucose DMEM media supplemented with 10% fetal bovine serum and […] L-glutamine (both from Sigma-Aldrich, USA). The cells were cultured in 25 cc flasks (Thermo Fischer Scientific, Waltham, MA, USA) at 37 °C with 100% humidity in a 5% CO2 atmosphere.
(§2) The MTT test was used to assess the cytotoxicity of compounds 1–14 [44]. The cytotoxicity of naproxen was also investigated due to its clinical use and structural similarity. Throughout the exponential development period, cells were taken from culture flasks and counted, and 5 × 10^3 cells/well were planted into 96-well culture plates. Following that, the cell lines were treated with varying doses of the investigated chemicals (1–14), naproxen ([…]), and fresh complete media as a control. All evaluated cells were incubated for 24, 48, and 72 h at 37 °C in an environment containing 5% CO2 and 100% humidity. Following incubation, each well’s culture media was taken out, each well received an addition of MTT solution at a final concentration of 0.5 mg/mL, and the cells were left to incubate for an additional four hours. The MTT solution was then withdrawn carefully, and the formazan crystals were dissolved in DMSO. After shaking the plates for 10 min, absorbance at 595 nm was measured using a multiplate reader (Zenyth 3100, Anthos Labtec Instruments, Salzburg, Austria). All concentrations of the tested compounds were performed in three separate wells of the microtiter plates and in three separate experiments. The results were reported as a ratio to the control value, untreated cells. IC50 values were also determined using Microsoft Office Excel 2021. The percentage of viable cells was estimated by dividing the readout absorbance value in the wells containing treated cells by the average absorbance value measured in the wells containing untreated cells, and multiplying the result by 100 [44]. % of the viable cells = ((absorbance of treated cell-absorbance of blank)/(absorbance of untreated cell-absorbance of blank)) × 100(3)

[4] = tested on: HeLa; assay: MTT cytotoxicity assay, HeLa; format: cell-based, human; settings: mean ± SD
Description: as §1, §2

[5] = tested on: MDA-MB-231; assay: MTT cytotoxicity assay, MDA-MB-231; format: cell-based, human; settings: mean ± SD
Description: as §1, §2

[6] = tested on: MRC-5 fibroblast cell line; assay: MTT cytotoxicity assay, MRC-5; format: cell-based; settings: for IC50: mean ± SD
Description: as §1, §2

[7] = tested on: carrageenan-induced rat paw edema; assay: Carrageenan-induced rat paw edema model; format: in vivo; settings: for Rat Paw Thickness: mean ± SD; for inhibition in vivo at 2.5 mg/kg / inhibition in vivo at 5 mg/kg / inhibition in vivo at 10 mg/kg: Rattus norvegicus
Description: The Carrageenan-induced rat paw edema model was used to assess the anti-inflammatory potential of novel compounds 8–14. Induction of inflammation was performed in all animals by intraplantar injection of […] 0.5% carrageenan saline into the left hind paw.
Animals (n = 200) were randomly divided into the following groups: control groups, that received either 1% DMSO or naproxen, and experimental groups, that received the novel compounds 8–14.
Control groups included DMSO and naproxen groups. Rats belonging to the DMSO group received 1% DMSO in the same volume as the compounds 8–14, 60 min before carrageenan injection. Moreover, naproxen groups included rats that were subjected to naproxen treatment in three doses: 2.5 mg/kg, 5 mg/kg, and 10 mg/kg. Naproxen was applied in the same manner as 1% DMSO.
Experimental groups included rats that were treated with compounds 8–14 and they were divided into three subgroups depending on the applied dose: 2.5 mg/kg, 5 mg/kg, and 10 mg/kg. The examined compounds were dissolved in 1% DMSO prior to treatment and applied to rats 60 min before inducing inflammation, i.e., before carrageenan injection. Doses of naproxen and investigated compounds were defined based on our previously published research.
In order to quantify the anti-inflammatory effects of the tested compounds, left paw thickness was measured at specific time points: prior to inflammation induction (moment 0) and 1, 2, 3, and 4 h (moments 1, 2, 3, and 4) following carrageenan injection. Tissue thickness was measured in the middle of the rat paw using a Digital Vernier caliper (Aerospace, China). The percentage of inhibition of paw edema after treatment with different agents was calculated according to the formula, Equation (2):% Inhibition = 100 × [1 − (Yt/Yc)](2) where Yt = average increase in paw thickness in the treated group of rats between two measurement moments, and Yc = average increase in paw thickness in the untreated group of rats between two measurement moments.

[8] = read-out: IC50 (cytotoxic activity of reference drugs), range over MCF-7, MDA-MB-231, HeLa, and HCT-116

## Cc1ccc(-c2cc(C(F)(F)F)nn2-c2ccc(S(N)(=O)=O)cc2)cc1 [celecoxib]
[1]; [8]
  IC50: 22.8 to 42.7 µM

## COc1cccc2c1C(=O)c1c(O)c3c(c(O)c1C2=O)C[C@@](O)(C(=O)CO)C[C@@H]3O[C@H]1C[C@H](N)[C@H](O)[C@H](C)O1 [doxorubicin]
[1]; [8]
  IC50: 3.18 to 26.8 µM

## CN(C)C/C=C/C(=O)Nc1cc2c(Nc3ccc(F)c(Cl)c3)ncnc2cc1O[C@H]1CCOC1 [afatinib]
[1]
  IC50: 6.2 to 11.4 µM

## COc1cccc(NC(=S)NC(=O)[C@@H](C)c2ccc3cc(OC)ccc3c2)c1 [Compound 4]
[2]
  5-LOX inhibition (in words): strongest 5-LOX inhibition
[3]
  Cytotoxic effect against the HCT 116 cell line (in words): moderate cytotoxic effects
[3]; 48 h
  IC50: 106 ± 12.9 µM
[3]; 72 h
  IC50: 71.6 ± 9.9 µM
[4]; 24 h
  IC50: > 200 µM
[4]; 48 h
  IC50: 101 ± 12.2 µM
[4]; 72 h
  IC50: 90.8 ± 8.3 µM
[5]; 24 h
  IC50: > 200 µM
[5]; 48 h
  IC50: > 200 µM
[5]; 72 h
  IC50: 110 ± 12.9 µM
[6]; 24 h
  IC50: > 200 µM
[6]; 48 h
  IC50: > 200 µM
[6]; 72 h
  IC50: > 200 µM

## COc1ccc2cc([C@H](C)C(=O)O)ccc2c1 [Naproxen, naproxen]
[3]; Homo sapiens, HCT-116, 24 h
  IC50: > 200 µM
[3]; Homo sapiens, HCT-116, 48 h
  IC50: > 200 µM
[3]; Homo sapiens, HCT-116, 72 h
  IC50: > 200 µM
[4]; Homo sapiens, HeLa, 24 h
  IC50: > 200 µM
[4]; Homo sapiens, HeLa, 48 h
  IC50: > 200 µM
[4]; Homo sapiens, HeLa, 72 h
  IC50: > 200 µM
[5]; Homo sapiens, MDA-MB-231, 24 h, 24 h
  IC50: > 200 µM
[5]; Homo sapiens, MDA-MB-231, 48 h, 48 h
  IC50: > 200 µM
[5]; Homo sapiens, MDA-MB-231, 72 h, 72 h
  IC50: > 200 µM
[6]
  Effect on the viability of the MRC-5 fibroblast cell line (in words): insignificant effect
[6]; Homo sapiens, MRC5, 24 h
  IC50: > 200 µM
[6]; Homo sapiens, MRC5, 48 h
  IC50: > 200 µM
[6]; Homo sapiens, MRC5, 72 h
  IC50: > 200 µM
[7]; 2.5 mg/kg, 1 h after carrageenan
  Rat Paw Thickness: 6.35 ± 0.15 mm
[7]; 2.5 mg/kg, 2 h after carrageenan
  Rat Paw Thickness: 6.02 ± 0.15 mm
[7]; 2.5 mg/kg, 3 h after carrageenan
  Rat Paw Thickness: 5.75 ± 0.20 mm
[7]; 2.5 mg/kg, 4 h after carrageenan
  Rat Paw Thickness: 5.18 ± 0.20 mm
[7]; 5.0 mg/kg, 1 h after carrageenan
  Rat Paw Thickness: 6.02 ± 0.20 mm
[7]; 5.0 mg/kg, 2 h after carrageenan
  Rat Paw Thickness: 5.52 ± 0.30 mm
[7]; 5.0 mg/kg, 3 h after carrageenan
  Rat Paw Thickness: 5.22 ± 0.30 mm
[7]; 5.0 mg/kg, 4 h after carrageenan
  Rat Paw Thickness: 4.98 ± 0.24 mm
[7]; 10.0 mg/kg, 1 h after carrageenan
  Rat Paw Thickness: 5.88 ± 0.23 mm
[7]; 10.0 mg/kg, 2 h after carrageenan
  Rat Paw Thickness: 5.55 ± 0.45 mm
[7]; 10.0 mg/kg, 3 h after carrageenan
  Rat Paw Thickness: 5.35 ± 0.32 mm
[7]; 10.0 mg/kg, 4 h after carrageenan
  Rat Paw Thickness: 4.95 ± 0.35 mm
[7]; 2.5 mg/kg, 1 h
  inhibition in vivo at 2.5 mg/kg: 19.7%
[7]; 2.5 mg/kg, 2 h
  inhibition in vivo at 2.5 mg/kg: 25.8%
[7]; 2.5 mg/kg, 3 h
  inhibition in vivo at 2.5 mg/kg: 26.1%
[7]; 2.5 mg/kg, 4 h
  inhibition in vivo at 2.5 mg/kg: 46.7%
[7]; 5.0 mg/kg, 1 h
  inhibition in vivo at 5 mg/kg: 27.9%
[7]; 5.0 mg/kg, 2 h
  inhibition in vivo at 5 mg/kg: 42.4%
[7]; 5.0 mg/kg, 3 h
  inhibition in vivo at 5 mg/kg: 47.7%
[7]; 5.0 mg/kg, 4 h
  inhibition in vivo at 5 mg/kg: 51.1%
[7]; 10.0 mg/kg, 1 h
  inhibition in vivo at 10 mg/kg: 36.1%
[7]; 10.0 mg/kg, 2 h
  inhibition in vivo at 10 mg/kg: 43.9%
[7]; 10.0 mg/kg, 3 h
  inhibition in vivo at 10 mg/kg: 45.9%
[7]; 10.0 mg/kg, 4 h
  inhibition in vivo at 10 mg/kg: 57.8%
